This is an account of results in patent US10481149B2.

Structures are written as SMILES. Where two headings read alike, the source gives them in different places.

Data set [1] has as its target T1, BSEP (Mus musculus, UniProt Q9QY30).
T1 sequence (Q9QY30 1-1321): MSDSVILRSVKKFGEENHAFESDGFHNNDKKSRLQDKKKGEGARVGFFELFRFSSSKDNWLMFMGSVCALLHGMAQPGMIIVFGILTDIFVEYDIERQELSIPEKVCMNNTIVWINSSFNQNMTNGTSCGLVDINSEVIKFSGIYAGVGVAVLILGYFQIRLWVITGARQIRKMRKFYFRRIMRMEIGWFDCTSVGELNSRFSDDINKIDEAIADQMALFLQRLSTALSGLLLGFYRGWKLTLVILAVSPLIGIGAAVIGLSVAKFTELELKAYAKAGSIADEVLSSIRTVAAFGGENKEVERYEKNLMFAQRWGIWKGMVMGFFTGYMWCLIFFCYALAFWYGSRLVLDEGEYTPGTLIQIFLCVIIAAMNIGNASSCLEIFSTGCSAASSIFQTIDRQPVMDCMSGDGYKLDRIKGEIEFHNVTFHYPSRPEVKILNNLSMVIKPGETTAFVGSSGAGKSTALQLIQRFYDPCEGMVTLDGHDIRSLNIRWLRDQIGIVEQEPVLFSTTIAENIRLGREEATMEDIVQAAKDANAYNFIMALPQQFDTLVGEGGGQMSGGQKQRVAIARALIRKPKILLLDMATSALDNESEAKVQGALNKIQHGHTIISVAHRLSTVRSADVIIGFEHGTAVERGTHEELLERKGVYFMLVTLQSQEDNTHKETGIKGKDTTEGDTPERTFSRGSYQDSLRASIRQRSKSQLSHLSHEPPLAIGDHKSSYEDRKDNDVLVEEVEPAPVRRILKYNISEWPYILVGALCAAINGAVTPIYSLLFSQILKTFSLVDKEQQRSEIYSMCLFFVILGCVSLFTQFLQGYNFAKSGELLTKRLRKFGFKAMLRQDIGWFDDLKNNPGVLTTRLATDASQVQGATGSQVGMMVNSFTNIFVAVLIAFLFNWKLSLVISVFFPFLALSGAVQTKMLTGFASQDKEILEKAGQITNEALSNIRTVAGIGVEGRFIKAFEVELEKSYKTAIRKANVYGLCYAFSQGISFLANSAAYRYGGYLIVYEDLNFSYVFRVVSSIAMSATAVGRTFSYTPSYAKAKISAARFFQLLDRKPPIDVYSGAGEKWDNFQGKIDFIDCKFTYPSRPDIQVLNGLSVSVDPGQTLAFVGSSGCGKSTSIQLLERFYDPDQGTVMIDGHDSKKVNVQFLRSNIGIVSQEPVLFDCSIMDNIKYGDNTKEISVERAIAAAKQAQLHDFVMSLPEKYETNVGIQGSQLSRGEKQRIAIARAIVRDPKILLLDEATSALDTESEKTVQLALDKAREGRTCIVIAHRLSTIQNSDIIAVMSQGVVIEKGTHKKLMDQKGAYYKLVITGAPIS
Nature of the data set: Inhibition of BSEP activity (transport of taurocholate) in mouse hepatocytes.

Data set [2] addresses T2, BSEP (Macaca fascicularis, UniProt D2CFL3). Nature of the data set: in vitro. As to conditions: monkey, hepatocytes in suspension, probe glycocholate.
For data set [3], the target named is T3, BSEP (Canis lupus familiaris, UniProt B8K1W2).
T3 sequence (B8K1W2 1-1325): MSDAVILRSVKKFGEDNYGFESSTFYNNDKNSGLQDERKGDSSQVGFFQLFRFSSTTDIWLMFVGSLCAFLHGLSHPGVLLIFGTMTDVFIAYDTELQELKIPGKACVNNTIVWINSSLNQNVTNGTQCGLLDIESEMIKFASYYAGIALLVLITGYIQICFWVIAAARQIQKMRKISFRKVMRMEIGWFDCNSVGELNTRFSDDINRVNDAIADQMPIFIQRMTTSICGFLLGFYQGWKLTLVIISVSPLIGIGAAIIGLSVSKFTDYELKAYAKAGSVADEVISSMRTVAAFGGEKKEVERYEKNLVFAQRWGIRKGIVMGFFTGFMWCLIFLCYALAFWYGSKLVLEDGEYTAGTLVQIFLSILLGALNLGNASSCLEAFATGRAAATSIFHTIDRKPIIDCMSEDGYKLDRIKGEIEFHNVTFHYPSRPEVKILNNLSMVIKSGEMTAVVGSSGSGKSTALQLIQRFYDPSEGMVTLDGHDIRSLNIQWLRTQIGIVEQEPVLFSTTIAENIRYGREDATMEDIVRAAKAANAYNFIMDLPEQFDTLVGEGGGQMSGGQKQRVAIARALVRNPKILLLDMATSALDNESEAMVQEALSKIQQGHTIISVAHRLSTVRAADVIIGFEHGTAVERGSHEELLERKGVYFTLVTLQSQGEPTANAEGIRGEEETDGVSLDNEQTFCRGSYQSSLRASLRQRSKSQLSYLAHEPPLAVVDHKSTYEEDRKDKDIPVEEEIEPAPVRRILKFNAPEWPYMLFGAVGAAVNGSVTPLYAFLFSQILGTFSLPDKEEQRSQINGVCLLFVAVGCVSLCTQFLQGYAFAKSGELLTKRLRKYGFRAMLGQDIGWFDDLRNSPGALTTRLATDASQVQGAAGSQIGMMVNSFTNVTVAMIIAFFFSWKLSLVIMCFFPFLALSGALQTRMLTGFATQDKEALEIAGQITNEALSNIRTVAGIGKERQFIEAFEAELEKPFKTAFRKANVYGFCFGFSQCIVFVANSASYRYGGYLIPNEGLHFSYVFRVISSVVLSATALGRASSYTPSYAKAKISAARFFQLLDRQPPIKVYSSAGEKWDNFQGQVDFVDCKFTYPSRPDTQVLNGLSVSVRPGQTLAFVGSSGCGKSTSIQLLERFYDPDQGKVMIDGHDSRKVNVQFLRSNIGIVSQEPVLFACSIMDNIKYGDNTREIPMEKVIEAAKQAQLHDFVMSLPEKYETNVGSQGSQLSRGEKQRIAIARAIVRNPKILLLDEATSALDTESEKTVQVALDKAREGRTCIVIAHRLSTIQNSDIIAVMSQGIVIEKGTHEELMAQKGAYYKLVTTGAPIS
As to the kind of experiment: IC50 for inhibition of BSEP activity in dog hepatocytes. The data set is classed as cell-based. The protocol:
(§1) Kinetic parameters were calculated using standard Michaelis-Menten kinetics. IC50 values were determined using Prism software (La Jolla, Calif.) or median-effect equation. [Chou et al., Theoretical basis, experimental design, and computerized simulation of synergism and antagonism in Drug Combination Studies. Pharmacological Reviews 58, 621, 2006]

The target of data set [4] is T2, BSEP. As to the kind of experiment: IC50 for inhibition of BSEP activity in monkey hepatocytes. The data set is classed as cell-based. As to conditions: hepatocytes in suspension. The protocol: as §1
[5] abbreviates: hepatocytes in suspension, probe taurocholate.

T2 sequence (D2CFL3 1-1323): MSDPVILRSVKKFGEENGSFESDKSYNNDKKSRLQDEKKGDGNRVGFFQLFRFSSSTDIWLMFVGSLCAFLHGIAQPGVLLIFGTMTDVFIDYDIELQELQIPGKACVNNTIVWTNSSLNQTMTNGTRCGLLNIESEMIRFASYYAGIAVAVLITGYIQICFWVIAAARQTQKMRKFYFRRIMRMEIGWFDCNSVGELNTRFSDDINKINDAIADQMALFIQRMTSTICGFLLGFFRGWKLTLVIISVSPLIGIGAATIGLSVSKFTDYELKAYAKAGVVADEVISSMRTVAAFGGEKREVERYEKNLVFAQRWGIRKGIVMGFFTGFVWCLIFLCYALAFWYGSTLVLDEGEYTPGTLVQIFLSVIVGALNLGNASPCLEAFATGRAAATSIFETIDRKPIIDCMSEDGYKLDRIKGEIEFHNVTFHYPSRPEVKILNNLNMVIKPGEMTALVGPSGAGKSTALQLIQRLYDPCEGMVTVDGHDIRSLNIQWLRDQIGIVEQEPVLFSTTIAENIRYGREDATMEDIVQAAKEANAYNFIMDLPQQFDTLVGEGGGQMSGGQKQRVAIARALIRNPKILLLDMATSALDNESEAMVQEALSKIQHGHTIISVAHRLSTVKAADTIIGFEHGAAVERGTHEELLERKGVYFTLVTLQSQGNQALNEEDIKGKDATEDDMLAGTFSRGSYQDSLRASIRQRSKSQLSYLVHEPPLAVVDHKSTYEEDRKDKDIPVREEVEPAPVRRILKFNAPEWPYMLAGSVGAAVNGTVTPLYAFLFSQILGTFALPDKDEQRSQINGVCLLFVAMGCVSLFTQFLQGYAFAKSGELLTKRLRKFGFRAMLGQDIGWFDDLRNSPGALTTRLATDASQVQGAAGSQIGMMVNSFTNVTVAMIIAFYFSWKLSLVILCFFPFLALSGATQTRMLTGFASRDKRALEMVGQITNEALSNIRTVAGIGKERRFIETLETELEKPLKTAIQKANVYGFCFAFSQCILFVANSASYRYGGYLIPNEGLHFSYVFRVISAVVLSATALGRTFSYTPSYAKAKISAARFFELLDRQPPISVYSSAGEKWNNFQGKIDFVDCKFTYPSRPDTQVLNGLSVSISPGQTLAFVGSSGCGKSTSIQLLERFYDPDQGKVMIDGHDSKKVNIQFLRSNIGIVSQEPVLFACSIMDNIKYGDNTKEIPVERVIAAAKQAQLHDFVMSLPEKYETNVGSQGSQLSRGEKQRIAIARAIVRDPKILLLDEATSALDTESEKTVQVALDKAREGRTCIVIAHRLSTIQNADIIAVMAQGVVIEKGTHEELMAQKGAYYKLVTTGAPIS

As for `COC(=O)N[C@H](C(=O)N[C@@H](Cc1ccccc1)[C@@H](O)CN(Cc1ccc(-c2ccccn2)cc1)NC(=O)[C@@H](NC(=O)OC)C(C)(C)C)C(C)(C)C` [Atazanavir, atazanavir], the inhibition at 1 h, 1 μM in data set [1] (setting [5]) and in data set [2] was less than 50% throughout. Moreover, the inhibition – broadly, how much of the control response was suppressed – at 1 h, 10 μM in data set [1] (setting [5]) is less than 50%; in data set [2] it was more than 50%.
For the compound `C[C@@H](Oc1cc(-c2cnn(C3CCNCC3)c2)cnc1N)c1c(Cl)ccc(F)c1Cl` [Crizotinib, crizotinib], the inhibition at 1 h, 1 μM in data set [1] (setting [5]) and in data set [2] was less than 50% each time. In addition, the inhibition at 1 h, 10 μM in data set [1] (setting [5]) and in data set [2] was less than 50% each time.
`OC(Cn1cncn1)(Cn1cncn1)c1ccc(F)cc1F` [Fluconazole, fluconazole]: in data set [1] (setting [5]), the inhibition at 1 h, 1 μM is less than 50% and the inhibition at 1 h, 10 μM is less than 50%. In data set [2], this compound had an inhibition at 1 h, 1 μM of less than 50% and an inhibition at 1 h, 10 μM of less than 50%.
As for `CC(=O)N1CCN(c2ccc(OCC3COC(Cn4ccnc4)(c4ccc(Cl)cc4Cl)O3)cc2)CC1` (centres unmarked) [Ketoconazole, ketoconazole], the inhibition at 1 h, 1 μM in data set [1] (setting [5]) and in data set [2] was less than 50% throughout. Further, the inhibition at 1 h, 10 μM in data set [1] (setting [5]) is less than 50%; in data set [2], more than 50%. In addition, in data set [3], the IC50 (usually the point on the concentration scale where inhibition reaches its midpoint) fell in the range of 1 to 10 µM. For the same compound, in data set [4], the IC50 at 1 h lay within 1 to 10 µM.
In the case of `Cc1c(O)cccc1C(=O)N[C@@H](CSc1ccccc1)[C@H](O)CN1C[C@H]2CCCC[C@H]2C[C@H]1C(=O)NC(C)(C)C` [Nelfinavir, nelfinavir], in data set [1] (setting [5]), the inhibition at 1 h, 1 μM is less than 50% and the inhibition at 1 h, 10 μM is less than 50%. In data set [2], this compound gave an inhibition at 1 h, 1 μM of less than 50% and an inhibition at 1 h, 10 μM of more than 50%.
As for `CC(C)NCC(O)COc1cccc2ccccc12` (centres unmarked) [Propranolol, propranolol], in data set [1] (setting [5]), the inhibition at 1 h, 1 μM was less than 50% and the inhibition at 1 h, 10 μM was less than 50%. In data set [2], this compound came in with an inhibition at 1 h, 1 μM of less than 50% and an inhibition at 1 h, 10 μM of less than 50%.
As to `O=c1c(O)c(-c2ccc(O)c(O)c2)oc2cc(O)cc(O)c12` [Quercetin, quercetin], in data set [1] (setting [5]), the inhibition at 1 h, 1 μM was less than 50% and the inhibition at 1 h, 10 μM is less than 50%. In data set [2], the inhibition at 1 h, 1 μM is less than 50% and the inhibition at 1 h, 10 μM is less than 50%.
As for `C=C[C@H]1C[N@@]2CC[C@H]1C[C@@H]2[C@@H](O)c1ccnc2ccc(OC)cc12` [Quinidine, quinidine], the inhibition at 1 h, 1 μM in data set [1] (setting [5]) and in data set [2] was less than 50% throughout. Moreover, the inhibition at 1 h, 10 μM in data set [1] (setting [5]) and in data set [2] was less than 50% in each case.
`CO[C@H]1/C=C/O[C@@]2(C)Oc3c(C)c(O)c4c(O)c(c(/C=N/N5CCN(C)CC5)c(O)c4c3C2=O)NC(=O)/C(C)=C\C=C\[C@H](C)[C@H](O)[C@@H](C)[C@@H](O)[C@@H](C)[C@H](OC(C)=O)[C@@H]1C` [Rifampicin]: in data set [3], the IC50 is more than 10 µM. Besides, the 50% inhibitory concentration (IC50) at 1 h in data set [4] was less than 1 µM.
As for `S=P(N1CC1)(N1CC1)N1CC1` [Thiotepa, thiotepa], the inhibition at 1 h, 1 μM in data set [1] and in data set [2] was less than 50% in each case. Further, the inhibition at 1 h, 10 μM in data set [1] and in data set [2] was less than 50% each time.
Turning to `Cc1c(C)c2c(c(C)c1O)CCC(C)(COc1ccc(CC3SC(=O)NC3=O)cc1)O2` (centres unmarked) [Troglitazone, troglitazone], the figures for the inhibition at 1 h, 1 μM in data set [1] (setting [5]) and in data set [2] were less than 50% and more than 50%, respectively. Moreover, the inhibition at 1 h, 10 μM in data set [1] (setting [5]) was less than 50%; in data set [2], more than 50%. In data set [3], the IC50 fell in the range of 1 to 10 µM. The half-inhibitory concentration (IC50) at 1 h in data set [4] fell in the range of 1 to 10 µM.
In data set [1] (setting [5]), `CC[C@]1(O)C[C@@H]2CN(CCc3c([nH]c4ccccc34)[C@@](C(=O)OC)(c3cc4c(cc3OC)N(C)[C@H]3[C@@](O)(C(=O)OC)[C@H](OC(C)=O)[C@]5(CC)C=CCN6CC[C@]43[C@@H]65)C2)C1` [Vinblastine, vinblastine] returned an inhibition at 1 h, 1 μM of less than 50% and an inhibition at 1 h, 10 μM of less than 50%. In data set [2], this compound had an inhibition at 1 h, 1 μM of less than 50% and an inhibition at 1 h, 10 μM of less than 50%.
